Patent US10351883B2, “Compounds for increasing lipid synthesis and storage” (NUtech Ventures, priority 2015, dated 2019)
Like-named read-outs stand apart in the source and are kept apart here.

System: Chlamydomonas reinhardtii
Test: 8-point dose response assay (0.25-30 μM)
Format: cell-based
Set-up: reference not given here
Settings: for Dose Response Assay 0.25 μM: 0.25 μM compound; for Dose Response Assay 0.625 μM: 0.625 μM compound; for Dose Response Assay 2.5 μM: 2.5 μM compound; for Dose Response Assay 5 μM: 5 μM compound; for Dose Response Assay 10 μM: 10 μM compound; for Dose Response Assay 15 μM: 15 μM compound; for Dose Response Assay 30 μM: 30 μM compound
Protocol: A large scale in vivo high throughput screen (HTS) was performed to identify small compounds that stimulate lipid production and accumulation using the model organism Chlamydomonas reinhardtii. The HTS employed a 384-well microplate format in which cells were allowed to grow in the presence of the test compounds at 10 μM final concentration for 72 hours.
The screening library included 43,736 compounds (ChemBridge, Corp). […] A sub-set of compounds were retested using an 8-point dose response assay (0.25-30 μM). Compounds were further assessed visually using a Nikon Ti-inverted microscope (60×) to reconfirm lipid droplet accumulation was induced.

[1] = 8-point dose response, Nile Red lipid accumulation
[2] = 1.25 μM compound, 8-point dose response, Nile Red lipid accumulation

## CCC1CCCCN1C(=O)c1ccc(Cl)cc1[N+](=O)[O-] (stereo not shown) [Compound 57]
[1]
  Dose Response Assay 0.25 μM: 0.99
  Dose Response Assay 0.625 μM: 1.06
  Dose Response Assay 2.5 μM: 0.90
  Dose Response Assay 5 μM: 1.28
  Dose Response Assay 10 μM: 1.11
  Dose Response Assay 15 μM: 1.15
  Dose Response Assay 30 μM: 1.87
[2]
  Dose Response Assay 1.25 μM: 1.01

## O=[N+]([O-])c1ccccc1CN1CCN(CC2CC3C=CC2C3)CC1 (stereo not shown) [Compound 124]
  Dose Response Assay 1.25 μM: 0.99
[1]
  Dose Response Assay 10 μM: 0.88

## COc1ccccc1C(=O)N1CCN(C(=O)C(c2ccccc2)c2ccccc2)CC1 [Compound 120]
  Dose Response Assay 1.25 μM: 0.89
[1]
  Dose Response Assay 0.25 μM: 0.91
  Dose Response Assay 0.625 μM: 0.64
  Dose Response Assay 2.5 μM: 1.12
  Dose Response Assay 5 μM: 1.07
  Dose Response Assay 10 μM: 2.15
  Dose Response Assay 15 μM: 3.19
  Dose Response Assay 30 μM: 1.02

## COc1cccc(CN2CCN(C(=O)c3cc(OC)c(OC)c(OC)c3)CC2)c1OC [Compound 101]
  Dose Response Assay 1.25 μM: 1.14
[1]
  Dose Response Assay 0.25 μM: 1.03
  Dose Response Assay 0.625 μM: 1.08
  Dose Response Assay 2.5 μM: 0.88
  Dose Response Assay 5 μM: 1.58
  Dose Response Assay 10 μM: 1.04
  Dose Response Assay 15 μM: 1.43
  Dose Response Assay 30 μM: 1.75

## C=CCn1c(SCC(=O)O)nnc1-c1ccc([N+](=O)[O-])cc1 [Compound 25]
[1]
  Dose Response Assay 0.25 μM: 1.15
  Dose Response Assay 0.625 μM: 1.13
  Dose Response Assay 2.5 μM: 1.02
  Dose Response Assay 5 μM: 1
  Dose Response Assay 10 μM: 1
  Dose Response Assay 15 μM: 1.33
  Dose Response Assay 30 μM: 1.34
[2]
  Dose Response Assay 1.25 μM: 0.99

## Cc1c(C(=O)Nc2ccccc2C(=O)NCc2ccccc2)cccc1[N+](=O)[O-] [Compound 55]
[1]
  Dose Response Assay 0.25 μM: 1.3
  Dose Response Assay 0.625 μM: 1.77
  Dose Response Assay 2.5 μM: 2.27
  Dose Response Assay 5 μM: 2.23
  Dose Response Assay 10 μM: 2.04
  Dose Response Assay 15 μM: 2.26
  Dose Response Assay 30 μM: 2.77
[2]
  Dose Response Assay 1.25 μM: 2.01

## Cc1ccc(C(=O)Nc2ccccc2C(=O)NC(C)C)cc1[N+](=O)[O-] [Compound 54]
[1]
  Dose Response Assay 0.25 μM: 1.05
  Dose Response Assay 0.625 μM: 1.53
  Dose Response Assay 2.5 μM: 2.32
  Dose Response Assay 5 μM: 2.79
  Dose Response Assay 10 μM: 1.73
  Dose Response Assay 15 μM: 1.78
  Dose Response Assay 30 μM: 1.58
[2]
  Dose Response Assay 1.25 μM: 2.13

## Cl.Oc1ccccc1CNCCC12CC3CC(CC(C3)C1)C2 [Compound 148]
[1]
  Dose Response Assay 0.25 μM: 0.94
  Dose Response Assay 0.625 μM: 1.04
  Dose Response Assay 2.5 μM: 1.32
  Dose Response Assay 5 μM: 1.63
  Dose Response Assay 10 μM: 1.39
  Dose Response Assay 15 μM: 1.65
  Dose Response Assay 30 μM: 1.45
[2]
  Dose Response Assay 1.25 μM: 0.88

## COc1ccc(C(=O)c2ccc(N3CCN(C)CC3)c([N+](=O)[O-])c2)cc1 [Compound 45]
[1]
  Dose Response Assay 0.25 μM: 0.93
  Dose Response Assay 0.625 μM: 0.99
  Dose Response Assay 2.5 μM: 2.3
  Dose Response Assay 5 μM: 3.61
  Dose Response Assay 10 μM: 2.02
  Dose Response Assay 15 μM: 2.06
  Dose Response Assay 30 μM: 1.56
[2]
  Dose Response Assay 1.25 μM: 1.57

## CCN1CCN(Cc2ccc(N(CC)CC)cc2)CC1 [Compound 104]
  Dose Response Assay 1.25 μM: 3.96
[1]
  Dose Response Assay 0.25 μM: 1.23
  Dose Response Assay 0.625 μM: 3.68
  Dose Response Assay 2.5 μM: 5.27
  Dose Response Assay 5 μM: 4.04
  Dose Response Assay 10 μM: 2.81
  Dose Response Assay 15 μM: 3.28
  Dose Response Assay 30 μM: 3.69

## CCOc1c(Cl)cc(C(=O)Nc2cccc([N+](=O)[O-])c2)cc1Cl [Compound 61]
[1]
  Dose Response Assay 0.25 μM: 0.90
  Dose Response Assay 0.625 μM: 0.96
  Dose Response Assay 2.5 μM: 0.95
  Dose Response Assay 5 μM: 1.04
  Dose Response Assay 10 μM: 0.91
  Dose Response Assay 15 μM: 1.24
  Dose Response Assay 30 μM: 1.14
[2]
  Dose Response Assay 1.25 μM: 0.92

## Cc1cccc(N2CCN(Cc3ccc([N+](=O)[O-])cc3)CC2)c1C [Compound 74]
  Dose Response Assay 1.25 μM: 0.80

## CC(=O)Nc1ccc(S(=O)(=O)Nc2cc([N+](=O)[O-])ccc2C)cc1 [Compound 18]
[1]
  Dose Response Assay 0.25 μM: 1.01
  Dose Response Assay 0.625 μM: 0.97
  Dose Response Assay 2.5 μM: 1.13
  Dose Response Assay 5 μM: 1.17
  Dose Response Assay 10 μM: 1.19
  Dose Response Assay 15 μM: 1.31
  Dose Response Assay 30 μM: 1.29
[2]
  Dose Response Assay 1.25 μM: 0.89
